Laboratory results reported in patent US20210244712A1, “METHODS FOR TREATING PATIENTS WITH CANCER HAVING DEFECTS IN CYCLIN D REGULATION” (NysnoBio Ireland DAC, priority 2018, published 2021).
Entries after “also recorded” stand apart in the source; their conditions may differ.

Columns and labels:
Assay type in all cases: cell-based
[1] = test system: NCl-H1703; test: Cell proliferation assay; settings: 72 hrs, read-out: Cell Viability: IC50
Outline: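 4×10^4 cells/ml plated, o/n 37° C./5% CO2; cpd added in triplicate, 72 hrs. Wash PBS, pNPP 10 mM in 0.1M NaOAc pH 5.5, 2 h 37° C. dark, stop NaOH, A405–A620. % inhibition vs DMSO.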

[2] = test system: OAW28; test: Cell proliferation assay; settings: Homo sapiens, OAW-28
[3] = test system: OVCAR-3; test: Cell proliferation assay; settings: Homo sapiens; Ovarian OVCAR-3; loss of p16 (mutant p53)
[4] = test system: OAW28; test: Senescence quantification (SA-βGal); settings: OAW28, loss of Rb expression
Method: Day 1: 96 well plate was seeded with 4000 cells/well and incubated for 24 hours at 37° C.
Day 2: Compound 42 (50, 100, or 150 nM) or palbociclib (1 μM) as positive control were added to the wells and the plate was incubated for 96 hours at 37° C.
Day 6: Senescence cells histochemical Staining Kit (Sigma) was used. The growth medium form the cells were aspirated then washed twice with fresh […]. […] 100 μL filtered Fixation Buffer was added per well and the plate was incubated for 6-7 minutes at room temperature. Then, the cells were rinsed 3 times with PBS. 50 μL of the Staining Mixture was added per well and incubated at 37° C. overnight without CO2 (staining is pH dependent). After staining, the Staining Mixture was removed, PBS and Hoechst dye (1 μg/mL) were added. Ten images were taken with Epifluorescence Microscope using the blue filter and 10 images were taken in the brightfield. The images were used to count the total cell number—the positive blue cells were counted in the bright field. The percentage of cells expressing β-galactosidase was calculated.
Method 1: Mammalian β-Galactosidase Assay Kit (Thermo Scientific) was used. […] The cells were washed once with PBS. […] The absorbance was measured at 405 nm. […]
Method 2: Assay of a portion of the lysate. […] 25 μL of lysate was removed and use it for Protein Quantification (BCA). […]

[5] = test system: cyclin E; test: Western blot of cellular biomarker cyclin E; settings: JEKO-1; 500 nM Compound 42; 48 hours; compared to palbociclib 1 μM
Method: Various cancer cells lines were treated with Compound 42 or palbociclib (control) to measure the expression of cyclin D, cyclin E, pRb, and Rb.
Day 1: 6 well plate was seeded with 3×10^5 cells/well with a final volume of 3 mL and incubated for 24 hours at 37° C.
Day 2: The media was removed and Compound 42 (see below for dose) or palbociclib (1 μM) as positive control were added to the wells the desired concentration in cell culture media, giving a final volume of 3 mL per well. The plate was incubated for 24 hours at 37° C. (or desired period).
Day 3: The media was removed from wells and washed ×3 with PBS. 500 μl of trypsin was added to the wells and incubate until cells detach. 500 μl media was added to neutralise trypsin, transferred to 2 ml Eppendorfs, and centrifuged (1500 RPM for 5 minutes). While spinning, the wells were washed with 1 mL PBS to collect any remaining cells. This wash was used to centrifuged cell pellet. After the first spin, the supernatant was discarded and the pellet was washed with PBS collected from the previous step. […] The protein concentration was determined using the BCA assay kit.
Day 4: Western blot analysis was performed. […] The membrane was blocked using 5% non-fat powdered milk* made up in 1×TBS containing 0.1% Tween (TBS-T and incubated for 1 hr with gentle rocking. The observation from the Western blot analysis is quantified in FIGS. 2-7D. […]

SMILES: Cc1ccccc1C(=O)Nc1nc(NC(=O)c2ccccc2C)n(-c2ccccc2)n1 [Compound F, 2-methyl-N-[5-[(2-methylbenzoyl)amino]-1-phenyl-1,2,4-triazol-3-yl]benzamide]
- IC50 [1]: 1850 nM

SMILES: Cc1ccccc1C(=O)Nc1nc(NC(=O)c2ccccc2C)n(-c2ccc(OC(F)(F)F)cc2)n1 [Compound 42, N,N′-(1-(4-(trifluoromethoxy)phenyl)-1H-1,2,4-triazole-3,5-diyl)bis(2-methylbenzamide)]
- IC50 ([2]; Ovarian OAW28, overexpression of Cyclin D, loss of p16 (mutant p53), loss of RB): 140 nM
- EC50 ([2]; Table 7a, Ovarian (OAW28)): 114 nM
- IC50 [3]: 140 nM
- cell senescence [4]: not observed; also recorded: no senescence; also recorded: += weak senescence due to loss of RB
- cyclin E expression [5]: reduction of cyclin E and cyclin D expression
